Data taken from patent US7476670B2, “Purine derivatives, method for preparing, pharmaceutical compositions and novel use” (Aventis Pharma S.A., priority 2003, dated 2009).
Converted amounts (≈) assume the structure as drawn.

How the values were obtained:
FAK = FAK (Homo sapiens, UniProt Q05397); test: Assay for inhibition of FAK activity (autophosphorylation); assay type: biochemical; conditions: fluorescence polarization, ATP 1 μM; read-out: IC50s expressed as micromolar
Description: The inhibition of the kinase activity is determined by fluorescence polarization, the autophosphorylation of FAK is detected by adding an anti-phosphoprotein antibody coupled to a fluorescent label.
The assay is carried out in a final volume of 30 μl; all the reagents are prepared in a buffer: • 50 mM HEPES pH 7.5 • 0.03% triton X100 • 10 mM MgCl2 • 5% Glycerol • 1 mM DTT 10 μl of the 10-times concentrated inhibitor are added to 5 μl of enzyme (100 ng final concentration), and 5 μl of incubation buffer and 10 μl of ATP (1 μM final concentration) are added.

EGF tyr Kinase = target: T1, EGF tyr Kinase (Homo sapiens, UniProt P00533); test: Assay for inhibition of EGF tyr kinase activity; assay type: biochemical; conditions: [33P]ATP, read-out: percentage inhibition at 20 μM
T1 construct: purchased Tebu SE-124
T1 sequence (P00533 25-1210): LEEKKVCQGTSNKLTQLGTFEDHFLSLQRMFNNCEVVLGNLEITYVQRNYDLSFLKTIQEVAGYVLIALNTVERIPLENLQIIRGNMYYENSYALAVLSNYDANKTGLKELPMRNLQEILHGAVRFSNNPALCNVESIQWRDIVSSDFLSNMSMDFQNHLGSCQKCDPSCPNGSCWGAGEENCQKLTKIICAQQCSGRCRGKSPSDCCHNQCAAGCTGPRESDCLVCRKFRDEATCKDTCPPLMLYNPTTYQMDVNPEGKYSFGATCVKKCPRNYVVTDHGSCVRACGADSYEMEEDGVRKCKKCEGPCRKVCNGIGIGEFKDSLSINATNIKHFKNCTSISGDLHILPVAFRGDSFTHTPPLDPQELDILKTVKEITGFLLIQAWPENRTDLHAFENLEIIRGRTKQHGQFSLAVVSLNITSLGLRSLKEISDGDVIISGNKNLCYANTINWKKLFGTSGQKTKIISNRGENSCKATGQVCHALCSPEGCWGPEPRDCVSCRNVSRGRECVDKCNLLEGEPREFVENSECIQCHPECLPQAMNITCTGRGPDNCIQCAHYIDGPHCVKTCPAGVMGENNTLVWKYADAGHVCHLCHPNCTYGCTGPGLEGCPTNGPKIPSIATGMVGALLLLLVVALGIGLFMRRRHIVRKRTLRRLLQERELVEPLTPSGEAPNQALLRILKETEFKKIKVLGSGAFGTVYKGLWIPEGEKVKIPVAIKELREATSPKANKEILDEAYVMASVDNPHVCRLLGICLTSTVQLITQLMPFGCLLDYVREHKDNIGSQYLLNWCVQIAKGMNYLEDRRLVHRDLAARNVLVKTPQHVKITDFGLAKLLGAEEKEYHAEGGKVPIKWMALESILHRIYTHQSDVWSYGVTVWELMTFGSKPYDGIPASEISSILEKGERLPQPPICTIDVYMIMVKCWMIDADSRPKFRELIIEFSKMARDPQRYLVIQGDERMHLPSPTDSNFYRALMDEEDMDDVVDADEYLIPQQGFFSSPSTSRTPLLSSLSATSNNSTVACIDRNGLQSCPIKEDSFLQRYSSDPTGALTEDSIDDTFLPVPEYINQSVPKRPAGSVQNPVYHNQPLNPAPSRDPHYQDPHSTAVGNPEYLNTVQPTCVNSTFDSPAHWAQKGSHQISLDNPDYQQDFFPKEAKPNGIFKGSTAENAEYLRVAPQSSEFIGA
Description: The inhibition of the kinase activity is determined by measuring the phosphorylation of its substrate peptide.
The assay is carried out in a final volume of 100 μl.
The incubation buffer is as follows:
• 5 mM Hepes/Tris pH 7.4 • 2% Glycerol • 0.2% triton X100 10 μl of the 10-times concentrated inhibitor are added to 20 μl of incubation buffer containing 1 U/μl final concentration of the enzyme (Tebu, SE-124); 30 μl of incubation buffer containing 0.43 mg/ml final concentration of peptide substrate are then added along with 20 μl of incubation buffer containing 0.4 μM of enzyme and, finally, 20 μl of 6 mM tris/HCl pH 7.4, 15 mM MgCl2 buffer containing 10 μM ATP and radiolabeled ATP, [^33P]ATP (0.25 μCi), are added. The reaction is stopped after incubation for 60 minutes at 30° C. • Results obtained expressed as percentage inhibition at 20 μM • Example 20 100% 10) Assay for Inhibition of AKT Activity

SRC kinase = target: T2, SRC kinase (Homo sapiens, UniProt P12931); test: Assay for inhibition of SRC kinase activity; assay type: biochemical; conditions: fluorescence polarization, read-out: percentage inhibition at 20 μM
T2 construct: purchased Upstate Biotechnology 14-117
T2 sequence (P12931 whole entry): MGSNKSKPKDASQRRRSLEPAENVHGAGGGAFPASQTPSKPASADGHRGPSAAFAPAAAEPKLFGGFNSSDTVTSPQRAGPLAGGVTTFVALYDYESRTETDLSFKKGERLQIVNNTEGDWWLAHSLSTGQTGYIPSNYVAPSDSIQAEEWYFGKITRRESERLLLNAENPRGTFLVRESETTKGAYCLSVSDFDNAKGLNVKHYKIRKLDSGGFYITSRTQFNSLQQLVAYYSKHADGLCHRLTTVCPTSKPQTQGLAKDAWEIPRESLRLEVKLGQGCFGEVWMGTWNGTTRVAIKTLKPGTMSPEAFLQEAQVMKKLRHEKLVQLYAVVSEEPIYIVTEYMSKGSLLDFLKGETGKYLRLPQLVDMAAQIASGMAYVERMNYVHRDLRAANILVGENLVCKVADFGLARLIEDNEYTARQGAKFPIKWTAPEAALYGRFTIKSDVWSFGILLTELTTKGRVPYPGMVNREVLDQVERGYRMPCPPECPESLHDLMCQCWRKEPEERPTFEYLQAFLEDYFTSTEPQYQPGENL
Description: 2) Assay for Inhibition of SRC Kinase Activity
The inhibition is determined by fluorescence polarization, the […] kinase phosphorylates a peptide detected by adding an anti-phosphopeptide antibody coupled to a fluorescent label.
The assay is carried out in a final volume of 50 μl; all the reagents are prepared in a buffer: • 25 mM HEPES/NaOH pH 7.6 • 5 mM MgCl2 • 2 mM MnCl2 • 50 μM Na2VO4 5 μl of the 10-times concentrated inhibitor are added to 25 μl of enzyme (12 U/ml final concentration), (Upstate Biotechnology ref 14-117). After incubation for 5 minutes at ambient temperature, 10 μl of PolyGluTyr 4/1 (150 ng/ml final concentration) and 10 μl of ATP (5 μM final concentration) are added. The detection is carried out after incubation for 20 minutes at ambient temperature. • Results obtained expressed as percentage inhibition at 20 μM • Example 8 98% • Example 15 99% • Example 20 99% • Example 24 99% • Example 27 95% • Example 30 99% • Example 32 100% • Example 38 95% 3) Assay for Inhibition of CDK2 Activity

CaCiv1 = CaCiv1 (Candida albicans, UniProt A0A1D8PH53); test: Assay for inhibition of CIV-CDK (CIV1) activity; assay type: biochemical; conditions: CaCiv1 with Cdk2 substrate, [33P]ATP, 30 min ambient temperature; read-out: IC50 as micromolar
Chain of CaCiv1 (A0A1D8PH53 entry or part of it): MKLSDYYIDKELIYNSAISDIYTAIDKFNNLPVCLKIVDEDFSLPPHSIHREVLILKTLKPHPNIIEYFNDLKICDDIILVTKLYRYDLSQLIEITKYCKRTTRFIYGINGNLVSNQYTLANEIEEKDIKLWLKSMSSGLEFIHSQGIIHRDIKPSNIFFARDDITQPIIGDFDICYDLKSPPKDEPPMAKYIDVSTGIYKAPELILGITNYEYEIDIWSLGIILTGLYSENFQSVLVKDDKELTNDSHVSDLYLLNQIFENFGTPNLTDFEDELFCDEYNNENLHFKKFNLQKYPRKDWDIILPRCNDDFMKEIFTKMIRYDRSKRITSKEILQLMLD
Source text: 1) Assay for Inhibition of CIV-CDK (CIV1) Activity
a) Preparation of the Reagents

Candida albicans = test: Minimum inhibitory concentration in liquid medium, micro method (NCCLS M27-A); assay type: cell-based; conditions: read-out: MIC Candida albicans
Description: (§1) The assay is carried out in a final volume of 40 μl; all the reagents are prepared in a buffer: • 50 mM HEPES pH 7.5 • 0.03% triton X100 • 10 mM MgCl2 • 5% Glycerol • 1 mM DTT 10 μl of the 10-times concentrated inhibitor are added to 5 μl of enzyme (75 ng final concentration), and 5 μl of peptide (1 μM final concentration), then 2.5 μl of incubation buffer containing 40 μM ATP and 2.5 μl of radiolabeled ATP, [^33P]ATP (500 nCi), are added. After incubation for 15 minutes at ambient temperature, 10 μl of incubation buffer containing 192 nM of substrate. […] Reference method for broth dilution antifungal susceptibility testing of yeasts. Approved Standard M27-A. NCCLS, Villanova, Pa.); the minimum concentration with which a visible decrease is observed in the cloudiness of the cell growth (at least 80% compared to a control without product) is the Minimum Inhibitory Concentration (MIC) of the antifungal agent with respect to the strain tested.
(§2) RPMI 1640 medium (liquid) without L-glutamine is supplemented with L-glutamine (0.3 g/l or 10.5 ml of a solution at 200 mM) and buffered with 34.54 g/l (0.165 M) of morpholinepropanesulfonic acid (MOPS). The medium is sterilized by filtration. 100 μl of RPMI medium are distributed into each well of a 96-well plate. The appropriate volume. of the antifungal solution is distributed in the first column of the microplate and supplemented with 200 μl of medium. Doubling dilutions are made so as to establish a range of 11 concentrations in each line of the microplate. The 12th well of each row will serve as a growth control. The cell suspension is prepared from a culture (liquid or agar) or from a frozen vial, and is diluted in RPMI medium so as to obtain a cell suspension at 5×10^3−2×10^4 cells/ml. 100 μl of the cell suspension are distributed in the microplate. For all species of Candida, the MIC is read after 24-48 h, and for Cryptococcus and Aspergillus after 48-72 h, of incubation at 37° C. in a normal atmosphere. The MIC is read by visual reading, determining the well which contains the lowest dose of antifungal agent which causes at least 80% inhibition of the growth of the fungus.

Aspergillus fumigatus = test: as above; assay type: cell-based; conditions: at least 80% inhibition of growth, read after 48-72 h at 37° C., RPMI 1640
Description: as §1, §2

Candida glabrata = test: as above; assay type: cell-based; conditions: Nakaseomyces glabratus, read-out: MIC Candida glabrata
Description: as §1, §2

ZAP kinase = target: T3, ZAP kinase (Homo sapiens, UniProt P43403); test: Assay for inhibition of ZAP kinase activity; assay type: biochemical; conditions: fluorescence polarization, read-out: percentage inhibition at 20 μM
T3 construct: purchased Panvera P2782
T3 sequence (P43403 1-619): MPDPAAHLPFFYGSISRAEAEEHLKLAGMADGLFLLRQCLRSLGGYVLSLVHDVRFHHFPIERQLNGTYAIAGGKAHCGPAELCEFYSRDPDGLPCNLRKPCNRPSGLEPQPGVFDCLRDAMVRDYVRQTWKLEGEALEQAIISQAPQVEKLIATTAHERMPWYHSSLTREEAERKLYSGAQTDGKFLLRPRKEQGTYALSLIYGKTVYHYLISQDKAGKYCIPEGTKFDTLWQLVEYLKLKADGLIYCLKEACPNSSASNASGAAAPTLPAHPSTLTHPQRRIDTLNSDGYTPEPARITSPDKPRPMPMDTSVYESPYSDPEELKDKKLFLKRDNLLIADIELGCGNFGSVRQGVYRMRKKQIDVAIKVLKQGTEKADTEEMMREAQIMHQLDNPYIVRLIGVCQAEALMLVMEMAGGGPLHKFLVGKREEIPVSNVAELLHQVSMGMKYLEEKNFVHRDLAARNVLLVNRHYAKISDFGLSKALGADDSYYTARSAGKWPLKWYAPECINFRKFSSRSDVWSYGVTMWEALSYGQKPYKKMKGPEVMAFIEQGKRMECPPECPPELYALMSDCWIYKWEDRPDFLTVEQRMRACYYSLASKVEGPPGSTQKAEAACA
Description: The inhibition of the kinase activity is determined by fluorescence polarization, the ZAP kinase phosphorylates a peptide detected by adding an anti-phosphopeptide antibody coupled to a fluorescent label.
The assay is carried out in a final volume of 50 μl; all the reagents are prepared in a buffer: • 20 mM Tris/HCl pH 7.7 • 7 mM MnCl2 • 50 μM Na2VO4 5 μl of the 10-times concentrated inhibitor are added to 25 μl of enzyme (0.7 μg/ml final concentration) (Panvera ref P2782). After incubation for 5 minutes at ambient temperature, 10 μl of PolyGT (300 ng/ml final concentration) and 10 μl of ATP (0.25 μM final concentration) are added. The detection is carried out after incubation for 15 minutes at ambient temperature. • Results obtained expressed as percentage inhibition at 20 μM • Example 8 98% • Example 20 95% • Example 24 96% 7) Assay for Inhibition of Casein Kinase II Activity

Chain of FAK (Q05397 whole entry, species assumed): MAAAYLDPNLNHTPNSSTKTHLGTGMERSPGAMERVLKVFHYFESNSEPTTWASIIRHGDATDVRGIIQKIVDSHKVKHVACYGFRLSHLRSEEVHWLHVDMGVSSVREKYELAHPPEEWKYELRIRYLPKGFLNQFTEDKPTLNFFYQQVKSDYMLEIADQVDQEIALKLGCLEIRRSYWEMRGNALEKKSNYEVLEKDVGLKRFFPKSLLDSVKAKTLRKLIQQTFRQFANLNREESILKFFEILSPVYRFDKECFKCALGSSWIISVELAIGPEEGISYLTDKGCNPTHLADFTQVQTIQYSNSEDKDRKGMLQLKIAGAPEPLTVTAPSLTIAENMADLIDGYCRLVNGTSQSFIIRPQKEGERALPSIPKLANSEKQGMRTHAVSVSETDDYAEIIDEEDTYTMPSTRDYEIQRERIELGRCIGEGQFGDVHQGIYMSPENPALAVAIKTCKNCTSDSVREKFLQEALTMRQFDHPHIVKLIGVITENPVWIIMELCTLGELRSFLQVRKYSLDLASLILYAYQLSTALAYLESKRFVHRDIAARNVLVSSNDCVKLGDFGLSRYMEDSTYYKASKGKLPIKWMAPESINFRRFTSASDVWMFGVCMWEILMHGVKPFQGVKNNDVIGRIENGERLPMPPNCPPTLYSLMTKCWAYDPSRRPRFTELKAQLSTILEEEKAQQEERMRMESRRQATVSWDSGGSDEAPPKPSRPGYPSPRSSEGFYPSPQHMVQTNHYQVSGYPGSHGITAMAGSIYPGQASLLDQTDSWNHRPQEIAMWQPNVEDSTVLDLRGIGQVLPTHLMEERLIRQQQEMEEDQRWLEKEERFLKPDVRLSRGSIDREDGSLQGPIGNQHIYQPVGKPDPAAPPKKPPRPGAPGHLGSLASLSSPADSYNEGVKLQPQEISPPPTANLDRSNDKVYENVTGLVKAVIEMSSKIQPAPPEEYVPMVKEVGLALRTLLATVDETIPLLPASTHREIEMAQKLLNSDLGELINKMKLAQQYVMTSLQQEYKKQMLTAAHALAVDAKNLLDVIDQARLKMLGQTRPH

`N[C@H]1CC[C@H](Nc2nc(-n3cnc4cc(OCc5ccccc5)ccc43)c3nc[nH]c3n2)CC1` [Example 20, Trans-N-[6-[5-(phenylmethoxy)-1H-benzimidazol-1-yl]-9H-purin-2-yl]-1,4-cyclohexanediamine] was tested, and the IC50 (FAK) was 1.6 µM, the inhibition at 20 µM (EGF tyr Kinase) was 100% and the inhibition at 20 µM (SRC kinase) was 99%. For the same compound, the IC50 (CaCiv1) was 1.7 µM, the MIC (Candida albicans) was 32 µg/mL (≈ 70.4 µM) and the MIC Aspergillus fumigatus (Aspergillus fumigatus) was 32 µg/mL (≈ 70.4 µM). It also gave an MIC (Candida glabrata) of 16 µg/mL (≈ 35.2 µM) and an inhibition at 20 µM (ZAP kinase) of 95%.
